# Target: T1, GPR40 of human origin (Homo sapiens, UniProt O14842)
# T1 construct: expressed in transfected cells
# Assay: Agonist action on GPR40 of human origin (intracellular Ca2+ change)
# Assay type: cell-based
# Conditions: CHO cell strain stably expressing GPR40 of human origin; change in Ca2+ concentration, fluorescent calcium indicator
# Protocol: Pharmacological Test Example 1: Agonist Action on GPR40 of Human Origin
# A CHO cell strain stably expressing GPR40 of human origin was used to determine the agonist action of a subject compound. This cell strain was seeded in a clear bottom 96 well plate at 4×10^4 cells/100 pt/well. The cell strain iswas cultured in a CO2 incubator overnight using a Ham's F-12 medium containing a 10% fetal bovine serum, 100 U/mL penicillin, 0.1 mg/mL streptomycin, and 400 μg/mL Geneticin. Calcium 4 Assay Kit (Molecular Devices) was used as a fluorescent calcium indicator. One mL of 77 mg/mL probenecid (Invitrogen) was added to 100 mL of a calcium indicator solution to prepare a solution (loading solution) mixed with a 20 mM HEPES-containing Hanks' balanced salt solution (HBSS) in equal proportions. To the cells from which the culture solution is removed, 200 μl of the loading solution was added, and the cells were cultured in a CO2 incubator for 1 hour. The subject compound was diluted with a 20 mM HEPES-containing HBSS and was added to the cells by 50 μL, and the change in the Ca^2+ concentration was measured with an intracellular ion analyzer. The EC50 value of the subject compound was calculated using the dose-response curve of fluorescence intensity variation.
# T1 sequence (O14842 whole entry): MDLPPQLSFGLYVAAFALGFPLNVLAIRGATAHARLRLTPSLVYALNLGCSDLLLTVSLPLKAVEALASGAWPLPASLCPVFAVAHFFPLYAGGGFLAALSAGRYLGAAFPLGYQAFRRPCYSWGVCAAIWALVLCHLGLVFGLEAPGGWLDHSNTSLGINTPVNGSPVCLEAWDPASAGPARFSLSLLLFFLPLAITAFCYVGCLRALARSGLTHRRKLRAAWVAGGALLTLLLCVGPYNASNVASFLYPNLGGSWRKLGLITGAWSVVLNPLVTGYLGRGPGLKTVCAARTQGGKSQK
row,SMILES,EC50
1,"[O-][s+]1nc(O)cc1-c1ccc(O[C@@H]2CCc3c(-c4ccccc4OC(F)(F)F)cccc32)cc1 (stereo partly drawn) [Example 65, 5-(4-(((R)-4-(2-trifluoromethoxyphenyl)-2,3-dihydro-1H-inden-1-yl)oxy)phenyl)-3-hydroxyisothiazole 1-oxide]",< 300 nM
2,"[O-][s+]1nc(O)cc1-c1ccc(O[C@@H]2CCc3c(-c4cccc(F)c4)cccc32)cc1 (stereo partly drawn) [Example 29, 5-(4-(((R)-4-(3-fluorophenyl)-2,3-dihydro-1H-inden-1-yl)oxy)phenyl)-3-hydroxyisothiazole 1-oxide]",< 300 nM
3,"[O-][s+]1nc(O)cc1-c1ccc(O[C@@H]2CCc3c(-c4ccc(OCc5ccccc5)c(F)c4)cccc32)cc1 (stereo partly drawn) [Example 57, 5-(4-(((R)-4-(4-benzyloxy-3-fluorophenyl)-2,3-dihydro-1H-inden-1-yl)oxy)phenyl)-3-hydroxyisothiazole 1-oxide]",300 to 3000 nM
4,"CC(C)(O)CCOc1ccc(Oc2cccc3c2CC[C@H]3Oc2ccc(-c3cc(O)n[s+]3[O-])cc2)cc1 (stereo partly drawn) [Example 113, 3-hydroxy-5-(4-(((R)-4-(4-(3-hydroxy-3-methylbutoxy)phenoxy)-2,3-dihydro-1H-inden-1-yl)oxy)phenyl)isothiazole 1-oxide]",< 300 nM
5,"[O-][s+]1nc(O)cc1-c1ccc(OCc2ccc(CN3CCC4(C=Cc5ccccc54)CC3)cc2)cc1 (centres unmarked) [Example 123, 3-hydroxy-5-(4-((4-(spiro[inden-1,4′-piperidin]-1′-ylmethyl)benzyl)oxy)phenyl)isothiazole 1-oxide]",300 to 3000 nM
6,"CC(C)(C)c1ccc(-c2cccc3c2CC[C@H]3Oc2ccc(-c3cc(O)n[s+]3[O-])cc2)cc1 (stereo partly drawn) [Example 33, 5-(4-(((R)-4-(4-tert-butylphenyl)-2,3-dihydro-1H-inden-1-yl)oxy)phenyl)-3-hydroxyisothiazole 1-oxide]",300 to 3000 nM
7,"Cc1ccc(F)cc1-c1cccc2c1CC[C@H]2Oc1ccc(-c2cc(O)n[s+]2[O-])cc1 (stereo partly drawn) [Example 41, 5-(4-(((R)-4-(5-fluoro-2-methylphenyl)-2,3-dihydro-1H-inden-1-yl)oxy)phenyl)-3-hydroxyisothiazole 1-oxide]",< 300 nM
8,"[O-][s+]1nc(O)cc1-c1ccc(O[C@@H]2CCc3c(-c4ccsc4)cccc32)cc1 (stereo partly drawn) [Example 82, 3-hydroxy-5-(4-(((R)-4-(thiophen-3-yl)-2,3-dihydro-1H-inden-1-yl)oxy)phenyl)isothiazole 1-oxide]",< 300 nM
9,"COc1ccc(-c2cccc3c2CC[C@H]3Oc2ccc(-c3cc(O)n[s+]3[O-])cc2)c(Cl)c1 (stereo partly drawn) [Example 48, 5-(4-(((R)-4-(2-chloro-4-methoxyphenyl)-2,3-dihydro-1H-inden-1-yl)oxy)phenyl)-3-hydroxyisothiazole 1-oxide]",< 300 nM
10,"[O-][s+]1nc(O)cc1-c1ccc(OC2CCc3cc(Br)ccc32)cc1 (centres unmarked) [Example 1, 5-(4-((5-bromo-2,3-dihydro-1H-inden-1-yl)oxy)phenyl)-3-hydroxyisothiazole 1-oxide]",< 300 nM
11,"COc1ccc(-c2cccc3c2CC[C@H]3Oc2ccc(-c3cc(O)n[s+]3[O-])cc2)c(OC)c1 (stereo partly drawn) [Example 49, 5-(4-(((R)-4-(2,4-dimethoxyphenyl)-2,3-dihydro-1H-inden-1-yl)oxy)phenyl)-3-hydroxyisothiazole 1-oxide]",< 300 nM
12,"[O-][s+]1nc(O)cc1-c1ccc(O[C@@H]2CCc3c(-c4ccc(F)cc4)cccc32)cc1 (stereo partly drawn) [Example 21, 5-(4-(((R)-4-(4-fluorophenyl)-2,3-dihydro-1H-inden-1-yl)oxy)phenyl)-3-hydroxyisothiazole 1-oxide]",< 300 nM
13,"Cc1cncc(-c2cccc3c2CC[C@H]3Oc2ccc(-c3cc(O)n[s+]3[O-])cc2)c1 (stereo partly drawn) [Example 72, 5-(4-(((R)-4-(5-methylpyridin-3-yl)-2,3-dihydro-1H-inden-1-yl)oxy)phenyl)-3-hydroxyisothiazole 1-oxide]",< 300 nM
14,"CC(C)(O)CCOc1ccc(Oc2cccc3c2CC[C@H]3Oc2ccc(-c3cc(O)n[s+]3[O-])cc2)cn1 (stereo partly drawn) [Example 97, 3-hydroxy-5-(4-(((R)-4-((6-(3-hydroxy-3-methylbutoxy)pyridin-3-yl)oxy)-2,3-dihydro-1H-inden-1-yl)oxy)phenyl)isothiazole 1-oxide]",< 300 nM
15,"N#Cc1cccc(Oc2cccc3c2CC[C@H]3Oc2ccc(-c3cc(O)n[s+]3[O-])cc2)c1 (stereo partly drawn) [Example 86, 3-(((1R)-1-(4-(3-hydroxy-1-oxidoisothiazol-5-yl)phenoxy)-2,3-dihydro-1H-inden-4-yl)oxy)benzonitrile]",< 300 nM
16,"[O-][s+]1nc(O)cc1-c1ccc(O[C@@H]2CCc3c(-c4cc(C(F)(F)F)ccc4Cl)cccc32)cc1 (stereo partly drawn) [Example 68, 5-(4-(((R)-4-(2-chloro-5-trifluoromethylphenyl)-2,3-dihydro-1H-inden-1-yl)oxy)phenyl)-3-hydroxyisothiazole 1-oxide]",300 to 3000 nM
17,"[O-][s+]1nc(O)cc1-c1ccc(O[C@@H]2CCc3c(-c4cc(F)cc(F)c4)cccc32)cc1 (stereo partly drawn) [Example 12, 5-(4-(((R)-4-(3,5-difluorophenyl)-2,3-dihydro-1H-inden-1-yl)oxy)phenyl)-3-hydroxyisothiazole 1-oxide]",< 300 nM
18,"CC(C)c1ccc(-c2cccc3c2CC[C@H]3Oc2ccc(-c3cc(O)n[s+]3[O-])cc2)cc1 (single isomer, unassigned) [Example 26]",300 to 3000 nM
19,"CCOc1ccc(-c2cccc3c2CC[C@H]3Oc2ccc(-c3cc(O)n[s+]3[O-])cc2)cc1F (stereo partly drawn) [Example 44, 5-(4-(((R)-4-(4-ethoxy-3-fluorophenyl)-2,3-dihydro-1H-inden-1-yl)oxy)phenyl)-3-hydroxyisothiazole 1-oxide]",300 to 3000 nM
20,"COc1cc(F)ccc1-c1cccc2c1CC[C@H]2Oc1ccc(-c2cc(O)n[s+]2[O-])cc1 (stereo partly drawn) [Example 51, 5-(4-(((R)-4-(4-fluoro-2-methoxyphenyl)-2,3-dihydro-1H-inden-1-yl)oxy)phenyl)-3-hydroxyisothiazole 1-oxide]",< 300 nM
21,"[O-][s+]1nc(O)cc1-c1ccc(O[C@@H]2CCc3c(-c4cc(F)ccc4F)cccc32)cc1 (stereo partly drawn) [Example 46, 5-(4-(((R)-4-(2,5-difluorophenyl)-2,3-dihydro-1H-inden-1-yl)oxy)phenyl)-3-hydroxyisothiazole 1-oxide]",< 300 nM
22,"C=Cc1ccc(-c2cccc3c2CC[C@H]3Oc2ccc(-c3cc(O)n[s+]3[O-])cc2)cc1 (stereo partly drawn) [Example 25, 5-(4-(((R)-4-(4-vinylphenyl)-2,3-dihydro-1H-inden-1-yl)oxy)phenyl)-3-hydroxyisothiazole 1-oxide]",300 to 3000 nM

# More lines, now with the values ahead:
row,EC50,SMILES
1,300 to 3000 nM,"N#Cc1ccc(Oc2cccc3c2OCC3Oc2ccc(-c3cc(O)n[s+]3[O-])cc2)cc1 (single isomer, unassigned) [Example 144-b, 4-((3-(4-(3-hydroxy-1-oxidoisothiazol-5-yl)phenoxy)-2,3-dihydrobenzofuran-7-yl)oxy)benzonitrile]"
2,300 to 3000 nM,"Cc1cccc(C)c1N1CCC(COc2ccc(-c3cc(O)n[s+]3[O-])cc2)C1 (centres unmarked) [Example 121, 5-(4-((1-(2,6-dimethylphenyl)pyrrolidin-3-yl)methoxy)phenyl)-3-hydroxyisothiazole 1-oxide]"
3,< 300 nM,"CCOCCOc1ccc(Oc2cccc3c2CC[C@H]3Oc2ccc(-c3cc(O)n[s+]3[O-])cc2)c(C)n1 (stereo partly drawn) [Example 102, 5-(4-(((R)-4-((6-(2-ethoxyethoxy)-2-methylpyridin-3-yl)oxy)-2,3-dihydro-1H-inden-1-yl)oxy)phenyl)-3-hydroxyisothiazole 1-oxide]"
4,300 to 3000 nM,"COc1cccnc1Oc1cccc2c1CC[C@H]2Oc1ccc(-c2cc(O)n[s+]2[O-])cc1 (stereo partly drawn) [Example 132, 3-hydroxy-5-(4-(((R)-4-((3-methoxypyridin-2-yl)oxy)-2,3-dihydro-1H-inden-1-yl)oxy)phenyl)isothiazole 1-oxide]"
5,< 300 nM,"[O-][s+]1nc(O)cc1-c1ccc(OC2COc3c(Oc4ccccc4)cccc32)cc1 (single isomer, unassigned) [Example 145-a, 3-hydroxy-5-(4-((7-phenoxy-2,3-dihydrobenzofuran-3-yl)oxy)phenyl)isothiazole 1-oxide]"
6,< 300 nM,"Cc1cccc(Oc2cccc3c2CC[C@H]3Oc2ccc(-c3cc(O)n[s+]3[O-])cc2)c1 (stereo partly drawn) [Example 94, 3-hydroxy-5-(4-(((R)-4-(m-tolyloxy)-2,3-dihydro-1H-inden-1-yl)oxy)phenyl)isothiazole 1-oxide]"
7,< 300 nM,"COc1ncc(Oc2cccc3c2CC[C@H]3Oc2ccc(-c3cc(O)n[s+]3[O-])cc2)cn1 (stereo partly drawn) [Example 110, 3-hydroxy-5-(4-(((R)-4-((2-methoxypyrimidin-5-yl)oxy)-2,3-dihydro-1H-inden-1-yl)oxy)phenyl)isothiazole 1-oxide]"
8,< 300 nM,"[O-][s+]1nc(O)cc1-c1ccc(O[C@@H]2CCc3c(Oc4ccc(OC(F)(F)F)cc4)cccc32)cc1 (stereo partly drawn) [Example 103, 3-hydroxy-5-(4-(((R)-4-(4-(trifluoromethoxy)phenoxy)-2,3-dihydro-1H-inden-1-yl)oxy)phenyl)isothiazole 1-oxide]"
9,< 300 nM,"[O-][s+]1nc(O)cc1-c1ccc(OCCc2ccc(Oc3ccccc3)cc2)cc1 (centres unmarked) [Example 162, 3-hydroxy-5-(4-(4-phenoxyphenethoxy)phenyl)isothiazole 1-oxide]"
10,< 300 nM,"CS(=O)(=O)CCCOc1ccc(Oc2cccc3c2CC[C@H]3Oc2ccc(-c3cc(O)n[s+]3[O-])cc2)cn1 (stereo partly drawn) [Example 116, 3-hydroxy-5-(4-(((R)-4-((6-(3-(methylsulfonyl)propoxy)pyridin-3-yl)oxy)-2,3-dihydro-1H-inden-1-yl)oxy)phenyl)isothiazole 1-oxide]"
